{"source": "patent US8252832B2", "about": "“Kinesin inhibitors as cancer therapeutics” (Novartis AG, priority 2007, dated 2012)", "test_system": "panel of cell lines and tumor explants", "experiment": "Soft agar (clonogenic) assay on cell lines and tumor explants", "format": "cell-based, human", "details": "Homo sapiens", "procedure": "Compound IIa was tested against a panel of cell lines and tumor explants in a soft agar assay as described in Fiebig, H. H., Maier, A., and Burger, A. M. (Clonogenic assay with established human tumour xenorafts: correlation of in vitro to in vivo activity as a basis for anticancer drug discovery, Eur. J. Cancer 40, 802-820 (2004).) Table 16 lists the type of cancer, the name of the sample, its GI50 (concentration needed to achieve 50% growth inhibition) value in the assay, the logarithm of the GI50 (log(GI50), and the relative sensitivity of each sample (Differential). The differential is calculated by subtracting the log(GI50) for each cell line from the average log(GI50) across the entire panel (0.236 in this case); a positive value indicates a sample that is more sensitive than average, whereas a negative value indicates a sample that is less sensitive than average.", "note": "Read-outs that look alike come from different tables or passages of the source."}
{"smiles": "CC(C)(C)[C@H](c1nc(-c2cc(F)ccc2F)cn1Cc1ccccc1)N(CC[C@H](N)CF)C(=O)CO", "note": "[Compound IIa]", "values": [{"measurement": "GI50", "setting": "MOLT-4, Leukemia (ALL), sample MOLT4, read-out: GI50", "value": 0.877, "unit": "nM"}, {"measurement": "GI50", "setting": "Mean across the entire panel, read-out: GI50", "value": 1.72, "unit": "nM"}, {"measurement": "GI50", "setting": "Melanoma, sample 462, GI50 in nM, read-out: log(GI50) (converted)", "value": "≥ 10", "unit": "nM"}, {"measurement": "GI50", "setting": "Melanoma, sample 462, read-out: GI50", "value": 10, "unit": "nM"}, {"measurement": "GI50", "setting": "Melanoma, sample 989, GI50 in nM, read-out: log(GI50) (converted)", "value": 12.7, "unit": "nM"}, {"measurement": "GI50", "setting": "Melanoma, sample 989, read-out: GI50", "value": 12.7, "unit": "nM"}, {"measurement": "GI50", "setting": "Melanoma, sample 1341, GI50 in nM, read-out: log(GI50) (converted)", "value": "≥ 10", "unit": "nM"}, {"measurement": "GI50", "setting": "Melanoma, sample 1341, read-out: GI50", "value": 10, "unit": "nM"}, {"measurement": "GI50", "setting": "NSCLC, sample 211, GI50 in nM, read-out: log(GI50) (converted)", "value": 0.216, "unit": "nM"}, {"measurement": "GI50", "setting": "NSCLC, sample 211, read-out: GI50", "value": 0.216, "unit": "nM"}, {"measurement": "GI50", "setting": "NSCLC, sample 289, GI50 in nM, read-out: log(GI50) (converted)", "value": 4.9, "unit": "nM"}, {"measurement": "GI50", "setting": "NSCLC, sample 289, read-out: GI50", "value": 4.9, "unit": "nM"}, {"measurement": "GI50", "setting": "NSCLC, sample 526, GI50 in nM, read-out: log(GI50) (converted)", "value": 1.26, "unit": "nM"}, {"measurement": "GI50", "setting": "NSCLC, sample 526, read-out: GI50", "value": 1.26, "unit": "nM"}, {"measurement": "GI50", "setting": "NSCLC, sample 629, GI50 in nM, read-out: log(GI50) (converted)", "value": "≥ 10", "unit": "nM"}, {"measurement": "GI50", "setting": "NSCLC, sample 629, read-out: GI50", "value": 10, "unit": "nM"}, {"measurement": "GI50", "setting": "NSCLC, sample 677, GI50 in nM, read-out: log(GI50) (converted)", "value": 1.16, "unit": "nM"}, {"measurement": "GI50", "setting": "NSCLC, sample 677, read-out: GI50", "value": 1.16, "unit": "nM"}, {"measurement": "GI50", "setting": "NSCLC, sample 737, GI50 in nM, read-out: log(GI50) (converted)", "value": 3.07, "unit": "nM"}, {"measurement": "GI50", "setting": "NSCLC, sample 737, read-out: GI50", "value": 3.07, "unit": "nM"}, {"measurement": "GI50", "setting": "NSCLC, sample 1012, GI50 in nM, read-out: log(GI50) (converted)", "value": 0.927, "unit": "nM"}, {"measurement": "GI50", "setting": "NSCLC, sample 1012, read-out: GI50", "value": 0.926, "unit": "nM"}, {"measurement": "GI50", "setting": "NSCLC, sample 1176, GI50 in nM, read-out: log(GI50) (converted)", "value": 3, "unit": "nM"}, {"measurement": "GI50", "setting": "NSCLC, sample 1176, read-out: GI50", "value": 3, "unit": "nM"}, {"measurement": "GI50", "setting": "NSCLC, sample 1422, GI50 in nM, read-out: log(GI50) (converted)", "value": 0.728, "unit": "nM"}, {"measurement": "GI50", "setting": "NSCLC, sample 1422, read-out: GI50", "value": 0.728, "unit": "nM"}, {"measurement": "GI50", "setting": "NSCLC, sample 1647, GI50 in nM, read-out: log(GI50) (converted)", "value": 16.7, "unit": "nM"}, {"measurement": "GI50", "setting": "NSCLC, sample 1647, read-out: GI50", "value": 16.8, "unit": "nM"}, {"measurement": "GI50", "setting": "Ovarian, sample 899, GI50 in nM, read-out: log(GI50) (converted)", "value": "≥ 10", "unit": "nM"}, {"measurement": "GI50", "setting": "Ovarian, sample 899, read-out: GI50", "value": 10, "unit": "nM"}, {"measurement": "GI50", "setting": "Ovarian, sample 1353, GI50 in nM, read-out: log(GI50) (converted)", "value": "≥ 10", "unit": "nM"}, {"measurement": "GI50", "setting": "Ovarian, sample 1353, read-out: GI50", "value": 10, "unit": "nM"}, {"measurement": "GI50", "setting": "PC-3M, Prostate, sample PC3M, GI50 in nM, read-out: log(GI50) (converted)", "value": 0.424, "unit": "nM"}, {"measurement": "GI50", "setting": "PC-3M, Prostate, sample PC3M, read-out: GI50", "value": 0.424, "unit": "nM"}, {"measurement": "GI50", "setting": "Pancreas, sample 546, GI50 in nM, read-out: log(GI50) (converted)", "value": 2.59, "unit": "nM"}, {"measurement": "GI50", "setting": "Pancreas, sample 546, read-out: GI50", "value": 2.59, "unit": "nM"}, {"measurement": "GI50", "setting": "Pancreas, sample 736, GI50 in nM, read-out: log(GI50) (converted)", "value": 1.26, "unit": "nM"}, {"measurement": "GI50", "setting": "Pancreas, sample 736, read-out: GI50", "value": 1.26, "unit": "nM"}, {"measurement": "GI50", "setting": "Pancreas, sample 1657, GI50 in nM, read-out: log(GI50) (converted)", "value": 27, "unit": "nM"}, {"measurement": "GI50", "setting": "Pancreas, sample 1657, read-out: GI50", "value": 27, "unit": "nM"}, {"measurement": "GI50", "setting": "Pancreas, sample 1861, GI50 in nM, read-out: log(GI50) (converted)", "value": 0.622, "unit": "nM"}, {"measurement": "GI50", "setting": "Pancreas, sample 1861, read-out: GI50", "value": 0.623, "unit": "nM"}, {"measurement": "GI50", "setting": "Pancreas, sample 1869, GI50 in nM, read-out: log(GI50) (converted)", "value": 10.9, "unit": "nM"}, {"measurement": "GI50", "setting": "Pancreas, sample 1869, read-out: GI50", "value": 10.9, "unit": "nM"}, {"measurement": "GI50", "setting": "Pancreas, sample 1872, GI50 in nM, read-out: log(GI50) (converted)", "value": 0.282, "unit": "nM"}, {"measurement": "GI50", "setting": "Pancreas, sample 1872, read-out: GI50", "value": 0.282, "unit": "nM"}, {"measurement": "GI50", "setting": "Pancreas, sample 1876, GI50 in nM, read-out: log(GI50) (converted)", "value": 0.337, "unit": "nM"}, {"measurement": "GI50", "setting": "Pancreas, sample 1876, read-out: GI50", "value": 0.337, "unit": "nM"}, {"measurement": "GI50", "setting": "Pancreas, sample 1881, GI50 in nM, read-out: log(GI50) (converted)", "value": 2.32, "unit": "nM"}, {"measurement": "GI50", "setting": "Pancreas, sample 1881, read-out: GI50", "value": 2.32, "unit": "nM"}, {"measurement": "GI50", "setting": "Pancreas, sample 1887, GI50 in nM, read-out: log(GI50) (converted)", "value": "≥ 10", "unit": "nM"}, {"measurement": "GI50", "setting": "Pancreas, sample 1887, read-out: GI50", "value": 10, "unit": "nM"}, {"measurement": "GI50", "setting": "Pancreas, sample 1900, GI50 in nM, read-out: log(GI50) (converted)", "value": 16.9, "unit": "nM"}, {"measurement": "GI50", "setting": "Pancreas, sample 1900, read-out: GI50", "value": 16.9, "unit": "nM"}, {"measurement": "GI50", "setting": "Pancreas, sample 1912, GI50 in nM, read-out: log(GI50) (converted)", "value": 0.112, "unit": "nM"}, {"measurement": "GI50", "setting": "Pancreas, sample 1912, read-out: GI50", "value": 0.112, "unit": "nM"}, {"measurement": "GI50", "setting": "Pancreas, sample 1937, GI50 in nM, read-out: log(GI50) (converted)", "value": 0.185, "unit": "nM"}, {"measurement": "GI50", "setting": "Pancreas, sample 1937, read-out: GI50", "value": 0.185, "unit": "nM"}, {"measurement": "GI50", "setting": "Prostate, sample MRIH1579, GI50 in nM, read-out: log(GI50) (converted)", "value": "≥ 10", "unit": "nM"}, {"measurement": "GI50", "setting": "Prostate, sample MRIH1579, read-out: GI50", "value": 10, "unit": "nM"}, {"measurement": "GI50", "setting": "SCLC, sample 538, GI50 in nM, read-out: log(GI50) (converted)", "value": 0.339, "unit": "nM"}, {"measurement": "GI50", "setting": "SCLC, sample 538, read-out: GI50", "value": 0.339, "unit": "nM"}, {"measurement": "GI50", "setting": "SCLC, sample 573, GI50 in nM, read-out: log(GI50) (converted)", "value": 0.587, "unit": "nM"}, {"measurement": "GI50", "setting": "SCLC, sample 573, read-out: GI50", "value": 0.587, "unit": "nM"}, {"measurement": "GI50", "setting": "SCLC, sample 615, GI50 in nM, read-out: log(GI50) (converted)", "value": 0.082, "unit": "nM"}, {"measurement": "GI50", "setting": "SCLC, sample 615, read-out: GI50", "value": 0.082, "unit": "nM"}, {"measurement": "GI50", "setting": "SCLC, sample 650, GI50 in nM, read-out: log(GI50) (converted)", "value": 0.376, "unit": "nM"}, {"measurement": "GI50", "setting": "SCLC, sample 650, read-out: GI50", "value": 0.376, "unit": "nM"}, {"measurement": "GI50", "setting": "SCLC, sample H69, GI50 in nM, read-out: log(GI50) (converted)", "value": 0.269, "unit": "nM"}, {"measurement": "GI50", "setting": "SCLC, sample H69, read-out: GI50", "value": 0.269, "unit": "nM"}]}
